Entries after “also recorded” stand apart in the source; their conditions may differ.
Experiments:
PARP = test system: PARP; set-up: method as in PMID 30196390, PMID 17235412; details: cited from earlier work
[1] = Distribution coefficient (log D6.8), pH 6.8 isotonic phosphate buffer/n-octanol; assay type: physicochemical; details: n-octanol/pH 6.8 isotonic phosphate buffer; 1-octanol/isotonic phosphate buffer (pH 6.8)
Protocol: Distribution coefficients (log D6.8) of the PARP inhibitors and their derivatives were measured using a pH 6.8 isotonic phosphate buffer/n-octanol system, as described in a previous paper.

[2] = test system: murine macrophage RAW264.7 cells challenged with LPS; assay: LPS-mediated induction of iNOS and COX-2 in RAW264.7 cells (Western blot); assay type: cell-based; details: pretreated 1 h with 5-ASA (20 mM), 3-AB (1 mM), 5-AIQ (10 μM), then LPS 24 h
Protocol: Tissue samples (0.2 g/mL) were homogenized in pre-chilled radioimmunoprecipitation assay buffer (50 mM Tris-HCl [pH 7.4], 1 mM EDTA, 0.7% Na deoxycholate, 1% NP-40, 150 mM NaCl, 0.3 μM aprotinin, 1 μM pepstatin, and 1 mM phenylmethylsulfonyl fluoride). The homogenates were centrifuged at 10,000× g at 4 °C for 10 min, followed by agitation on ice for 30 min. Whole and nuclear cell lysates were prepared as described previously. The protein concentrations in the lysates were determined using bicinchoninic acid (Thermo Fisher Scientific, Waltham, MA, USA) according to the manufacturer’s instructions. Cell and tissue lysates were separated by SDS-PAGE on 10% and 7.5% gels. Nrf2, HO-1, cyclooxygenase-2 (COX-2), and inducible nitric oxide synthase (iNOS) proteins were detected using the following antibodies: anti-Nrf2 (sc-365949, Santa Cruz Biotechnology, Dallas, TX, USA), anti-HO-1 (sc-136961, Santa Cruz Biotechnology), anti-COX-2 (sc-365374, Santa Cruz Biotechnology), anti-iNOS (NOS-2) antibody (sc-7271, Santa Cruz Biotechnology), and secondary antibodies corresponding to the primary antibodies (Santa Cruz Biotechnology). Protein bands were visualized using SuperSignal chemiluminescence substrate (Thermo Fisher Scientific). α-Tubulin were detected using antibodies specific to each protein (Santa Cruz Biotechnology) as loading controls. […]

[3] = Incubation in the cecal contents of rats (colonic activation); assay type: in vitro ADME, rat; details: 1 mM, 10% cecal contents, under nitrogen
Source text: Male Sprague–Dawley rats (250–260 g) were euthanized using CO2 gas before a midline incision was made. The contents of the intestinal tract were collected from the small intestine and cecum obtained from each of three rats and were suspended in pH 6.8 isotonic phosphate buffer to prepare a 20% (w/v) suspension. To maintain anaerobic conditions in the cecum, the cecal contents were collected under a N2 atmosphere in an atmospheric bag (AtmosBag, Sigma, St. Louis, MO, USA). Derivatives of PARP inhibitors (2 mM) dissolved in pH 6.8 isotonic phosphate buffer (5 mL) were mixed with the cecal and small intestinal suspensions (5 mL) and then incubated at 37 °C. The cecal contents were incubated in nitrogen. At predetermined time intervals, a 0.5 mL portion of the mixture was transferred to a microtube and centrifuged at 10,000× g at 4 °C for 10 min. The supernatants (0.1 mL) were mixed with MeOH (0.9 mL), followed by centrifugation at 10,000× g at 4 °C for 7 min. The supernatants were filtered through a membrane filter (0.45 μm), and the concentrations of PARP inhibitors in the filtrates (20 μL) were analyzed using HPLC.

DNBS-induced rat colitis = DNBS-induced rat colitis model (anticolitic effects); assay type: in vivo
Protocol: DNBS-induced colitis was produced in rats as previously described. Two independent animal experiments were performed to evaluate the anticolitic effects of the drugs. For the first experiment, the rats were divided into the following five treatment groups (n = 5 per group): group 1 (normal group), oral gavage of 1.0 mL of PBS; group 2 (colitis group), oral gavage of 1.0 mL of PBS; group 3 (5-AIQ-treated colitis group), oral gavage of 5-AIQ (5 mg/kg) in 1.0 mL of PBS; group 4 [AQSA-Glu-treated colitis group (L)], oral gavage of AQSA-Glu (7.5 mg/kg, equivalent to 2.5 mg/kg of 5-AIQ) in 1.0 mL of PBS; and group 5 [AQSA-Glu-treated colitis group (H)], oral gavage of AQSA-Glu (15 mg/kg, equivalent to 5 mg/kg of 5-AIQ) in 1.0 mL of PBS. For the second experiment, the rats were divided into the following six treatment groups (n = 5 per group): group 1 (normal group), oral gavage of 1.0 mL of PBS; group 2 (colitis group), oral gavage of 1.0 mL of PBS; group 3 (SSZ-treated colitis group), oral gavage of SSZ (50 mg/kg) in 1.0 mL of PBS; group 4 (AQSA-Glu-treated colitis group), oral gavage of AQSA-Glu (15 mg/kg) in 1.0 mL of PBS; group 5 (mixture of AQSA-Glu + OSZ-treated colitis group), oral gavage of mixture of AQSA-Glu (15 mg/kg) and OSZ (19 mg/kg, half-equimolar to 50 mg/kg of SSZ) in 1.0 mL of PBS; and group 6 (ABSA-treated colitis group), oral gavage of ABSA (36 mg/kg, equivalent to 50 mg/kg of SSZ) in 1.0 mL of PBS. Three days after the induction of inflammation, each drug was orally administered to rats once daily, and the anticolitic effects were assessed 24 h after the sixth medication. The animal experiment scheme is shown in Supplementary Data S1. The colonic damage score was calculated using a scoring system modified from previously reported criteria. The modified scoring system is shown in Supplementary Data S2. Four independent observers who were blinded to the treatment conditions scored colonic damage according to the scoring system. Myeloperoxidase (MPO) activity in the distal colon (4 cm) was measured as described previously.
Tissue samples (0.2 g/mL) were homogenized in pre-chilled radioimmunoprecipitation assay buffer (50 mM Tris-HCl [pH 7.4], 1 mM EDTA, 0.7% Na deoxycholate, 1% NP-40, 150 mM NaCl, 0.3 μM aprotinin, 1 μM pepstatin, and 1 mM phenylmethylsulfonyl fluoride). The homogenates were centrifuged at 10,000× g at 4 °C for 10 min, followed by agitation on ice for 30 min. Whole and nuclear cell lysates were prepared as described previously. The protein concentrations in the lysates were determined using bicinchoninic acid (Thermo Fisher Scientific, Waltham, MA, USA) according to the manufacturer’s instructions.
Cell and tissue lysates were separated by SDS-PAGE on 10% and 7.5% gels. Nrf2, HO-1, cyclooxygenase-2 (COX-2), and inducible nitric oxide synthase (iNOS) proteins were detected using the following antibodies: anti-Nrf2 (sc-365949, Santa Cruz Biotechnology, Dallas, TX, USA), anti-HO-1 (sc-136961, Santa Cruz Biotechnology), anti-COX-2 (sc-365374, Santa Cruz Biotechnology), anti-iNOS (NOS-2) antibody (sc-7271, Santa Cruz Biotechnology), and secondary antibodies corresponding to the primary antibodies (Santa Cruz Biotechnology). Protein bands were visualized using SuperSignal chemiluminescence substrate (Thermo Fisher Scientific). α-Tubulin were detected using antibodies specific to each protein (Santa Cruz Biotechnology) as loading controls. Western blot images were quantified using Image Lab software (version 5.2 build 14; Bio-Rad, Hercules, CA, USA). The means of the quantified values are presented under each Western blot (n = 3 for cell experiments and n = 5 for animal experiments).
The levels of the inflammatory cytokine-induced neutrophil chemoattractant-3 (CINC-3) in the inflamed distal colon were determined using a CINC-3 ELISA kit (R&D Systems, Minneapolis, MN, USA). […]

[4] = Drug concentration in the cecum after oral administration; assay type: in vivo, rat; details: rats
Protocol: Male Sprague–Dawley rats were fasted for 24 h but had access to water. 5-AIQ (10 mg/kg), AQSA-Glu (equivalent to 10 mg/kg 5-AIQ), 3-AB (17 mg/kg), and ABSA (equivalent to 17 mg/kg 3-AB) in PBS (1.0 mL) were administered to the rats by oral gavage. Blood samples were collected via cardiac puncture at 2, 4, and 8 h after the oral gavage. The blood samples were centrifuged at 10,000× g at 4 °C for 10 min to obtain the plasma (0.3 mL). The plasma (0.1 mL) was transferred to a centrifuge tube and mixed with methanol (0.9 mL). The supernatants were filtered through a membrane filter (0.45 μm), and then the filtrate (20.0 μL) was subjected to HPLC analysis. To determine drug concentrations in the cecum, cecal contents were collected at 2, 4, and 8 h after oral gavage and mixed with pH 6.8 isotonic phosphate buffer to make a 10% suspension, which was subjected to centrifugation at 10,000× g for 10 min at 4 °C. The supernatants (0.1 mL) were transferred to fresh microtubes, followed by the addition of MeOH (0.9 mL). After centrifugation at 10,000× g at 4 °C for 7 min and subsequent filtration through a membrane filter (0.45 μm), the concentrations of PARP inhibitors in the filtrates (20 μL) were analyzed using HPLC.

Caco-2 cell monolayer = assay: Cell permeability via Caco-2 cell monolayer; assay type: in vitro ADME; details: 500 µM apical, concentration determined in basolateral compartment
Protocol: Caco-2 cells (4 × 10^5 per insert) were seeded and grown in Transwell 6-well inserts with a pore size of 0.4 μm (SPL Inc., Houston, TX, USA) until the transepithelial electrical resistance value (EMD Millipore, Billerica, MA, USA) reached 2000 Ω.cm^2. After removing the culture medium (DMEM) containing 1% penicillin/streptomycin from the basolateral and apical (insert) compartments, the apical compartment was filled with DMEM without phenol red (2 mL) containing PARP inhibitors and their derivatives (500 μM), whereas the basolateral compartment was filled with DMEM without phenol red (3 mL). At appropriate time intervals, the drug concentration in the basolateral compartment was determined by HPLC.

[5] = set-up: method as in PMID 31743034; details: SSZ at an effective dose; cited from earlier work
[6] = second experiment: SSZ 50 mg/kg, AQSA-Glu 15 mg/kg, AQSA-Glu 15 mg/kg + OSZ 19 mg/kg, ABSA 36 mg/kg, oral once per day, six treatments

NC(=O)c1cccc(N)c1 [3-AB, 3-aminobenzamide, reference compound]
concentrations eliciting significant PARP inhibition (PARP): millimolar
logD [1]: 0.33

Nc1cccc2cnccc12 [5-AIQ, 5-aminoisoquinoline, reference compound]
concentrations eliciting significant PARP inhibition (PARP): micromolar
logD [1]: 3.16

Nc1ccc(O)c(C(=O)O)c1 [5-ASA, 5-aminosalicylic acid]
levels of iNOS and COX-2 proteins [2]: reduced the levels of iNOS and COX-2 proteins

NC(=O)c1cccc(N=Nc2ccc(O)c(C(=O)O)c2)c1 [ABSA, 5-[(3-carbamoylphenyl)diazenyl]-2-hydroxybenzoic acid]
conversion rate in cecal contents [3]: slightly higher than that of the derivatives of 5-AIQ
effectiveness against rat colitis (anticolitic effects) (DNBS-induced rat colitis; second experiment, same doses): more effective against rat colitis than SSZ and AQSA-Glu
colonic damage and mucosal recovery (DNBS-induced rat colitis; [6]): greater effectiveness in healing colonic injury, including mucosa, than the other single-treatment groups; also recorded: as effective against colonic damage as the mixture
inflammatory indices: MPO activity, CINC-3, iNOS and COX-2 in inflamed colon (DNBS-induced rat colitis; [6]): greater; also recorded: suppressed to a greater extent by ABSA than by SSZ or AQSA
amount of 3-AB delivered to the cecum ([4]; ABSA 36 mg/kg (equivalent to 17 mg/kg of 3-AB) vs 3-AB 17 mg/kg, 2, 4, 8 h): much greater amount
amount and temporal pattern of 5-ASA accumulation in the cecum ([4]; ABSA 36 mg/kg vs equimolar SSZ 50 mg/kg, 2, 4, 8 h): comparable
logD [1]: -1.07
transport via the Caco-2 cell monolayer (cell permeability) (Caco-2 cell monolayer): less cell-permeable than 3-AB

O=C(O)c1cc(N=Nc2cccc3cnccc23)ccc1O [AQSA, 2-hydroxy-5-(isoquinolin-5-yldiazenyl)benzoic acid]
logD [1]: 0.31

O=C(O)C[C@H](NC(=O)c1cc(/N=N/c2cccc3cnccc23)ccc1O)C(=O)O [AQSA-Asp]
logD [1]: -1.77

O=C(O)CC[C@H](NC(=O)c1cc(/N=N/c2cccc3cnccc23)ccc1O)C(=O)O [AQSA-Glu]
mucosal recovery (H&E staining of inflamed distal colon) (DNBS-induced rat colitis; first experiment, oral once per day for 6 days): greater mucosal recovery
colonic damage (colonic damage score) (DNBS-induced rat colitis; first experiment: AQSA-Glu 7.5 and 15 mg/kg (equivalent to 2.5 and 5 mg/kg of 5-AIQ) vs 5-AIQ 5 mg/kg, oral once per day for 6 days): substantially improved colonic damage in a dose-dependent manner and were more effective in ameliorating colonic damage than 5-AIQ
MPO activity and proinflammatory mediators (CINC-3, iNOS, COX-2) in inflamed distal colon (DNBS-induced rat colitis; first experiment: AQSA-Glu low and high doses vs 5-AIQ 5 mg/kg, oral once per day for 6 days): more effective in suppressing MPO activity and reducing proinflammatory mediators in the inflamed distal colon than 5-AIQ
effectiveness against rat colitis (DNBS-induced rat colitis; first experiment: AQSA-Glu low dose (2.5 mg/kg as 5-AIQ) vs 5-AIQ (5 mg/kg)): more effective against rat colitis than 5-AIQ
amount of 5-AIQ delivered to the cecum ([4]; AQSA-Glu 29.3 mg/kg (equivalent to 10 mg/kg of 5-AIQ) vs 5-AIQ 10.0 mg/kg, 2, 4, 8 h): much greater amount
logD [1]: -1.83

O=C(O)c1cc(/N=N/c2ccc(S(=O)(=O)Nc3ccccn3)cc2)ccc1O [SSZ, Sulfasalazine]
colonic concentrations of 5-ASA after oral administration [5]: millimolar levels
